The Kinase Knowledgebase extract (Sharma et al. 2016)

Molecular target: MAPK14 (human) (UniProt Q16539)
Assay: Cell-Based Assay
Conditions: hct-116

Chain of MAPK14 (human) (Q16539 whole entry, looked up): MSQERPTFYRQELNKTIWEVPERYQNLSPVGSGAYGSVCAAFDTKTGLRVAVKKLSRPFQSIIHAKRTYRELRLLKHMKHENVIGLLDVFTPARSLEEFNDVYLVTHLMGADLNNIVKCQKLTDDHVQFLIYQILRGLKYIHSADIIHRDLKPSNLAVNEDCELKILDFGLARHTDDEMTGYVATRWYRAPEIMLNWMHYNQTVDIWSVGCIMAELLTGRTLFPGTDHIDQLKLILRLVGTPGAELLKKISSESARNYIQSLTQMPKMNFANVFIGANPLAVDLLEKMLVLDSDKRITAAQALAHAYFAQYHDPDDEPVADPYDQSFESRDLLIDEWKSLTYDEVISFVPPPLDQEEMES

Structure (SMILES)	IC50
Nc1ncc(-c2cnn(C3CC(=O)C3)c2)c2cc(-c3csc4cnccc34)oc12	100 to 1000 nM
CC(=O)N1CCC(n2cc(-c3cnc(N)c4oc(-c5ccc6c(c5)C(=O)NC6)cc34)cn2)CC1	> 10000 nM
Nc1ncc(-c2cnn([C@H]3CC[C@H](O)CC3)c2)c2cc(-c3cccc4cnccc34)oc12	100 to 1000 nM
Cc1sc2cnccc2c1-c1cc2c(-c3cnn([C@H]4CC[C@H](O)CC4)c3)cnc(N)c2o1	100 to 1000 nM
CC(=O)N1CCC(n2cc(-c3cnc(N)c4oc(-c5cccc(O)c5)cc34)cn2)CC1	100 to 1000 nM
Nc1ncc(-c2cnn(C3CCNCC3)c2)c2cc(-c3cccc4cnccc34)oc12	100 to 1000 nM
Nc1ncc(-c2cnn([C@H]3CC[C@H](O)CC3)c2)c2cc(-c3cc(F)cc4cnsc34)oc12	100 to 1000 nM
Nc1ncc(-c2cn[nH]c2)c2cc(-c3cccc4cnccc34)oc12	100 to 1000 nM
CC(=O)N1CCC(n2cc(-c3cnc(N)c4oc(-c5ccc6occc6c5)cc34)cn2)CC1	100 to 1000 nM
CC(=O)N1CCC(n2cc(-c3cnc(N)c4oc(-c5ccc(O)cc5C)cc34)cn2)CC1	100 to 1000 nM
CCN1CCC(n2cc(-c3cnc(N)c4oc(-c5cccc6cnccc56)cc34)cn2)CC1	100 to 1000 nM
CC(=O)N1CCC(n2cc(-c3cnc(N)c4oc(-c5ccc6sccc6c5)cc34)cn2)CC1	100 to 1000 nM
Cn1cc(-c2cnc(N)c3oc(-c4cccc5cnccc45)cc23)cn1	100 to 1000 nM
CC(=O)N1CCC(n2cc(-c3cnc(N)c4oc(-c5cccc([N+](=O)[O-])c5)cc34)cn2)CC1	100 to 1000 nM
CC(=O)N1CCC(n2cc(-c3cnc(N)c4oc(-c5cccn6ccnc56)cc34)cn2)CC1	100 to 1000 nM
Nc1ncc(-c2cnn(C3CCN(C(=O)C4CCC4)CC3)c2)c2cc(-c3cccc4cnccc34)oc12	100 to 1000 nM
Nc1ncc(-c2cnn(C3CNC3)c2)c2cc(-c3csc4cnccc34)oc12	100 to 1000 nM
CS(=O)(=O)N1CCC(n2cc(-c3cnc(N)c4oc(-c5cccc6cnccc56)cc34)cn2)CC1	100 to 1000 nM
Nc1ncc(-c2cnn(C3CCNCC3)c2)c2cc(-c3cccc4cnsc34)oc12	100 to 1000 nM
Nc1ncc(-c2cnn([C@H]3CC[C@H](O)CC3)c2)c2cc(-c3cncc4cnsc34)oc12	100 to 1000 nM
Cn1cc(-c2cnc(N)c3oc(-c4c[nH]c5cnccc45)cc23)cn1	100 to 1000 nM

Structure (SMILES)	IC50
CNc1ncc(-c2cnn([C@H]3CC[C@H](O)CC3)c2)c2cc(-c3csc4cnccc34)oc12	≤ 100 nM
CC(=O)N1CCC(n2cc(-c3cnc(N)c4oc(-c5cccc(OCC#N)c5)cc34)cn2)CC1	100 to 1000 nM
CC(=O)N1CCC(n2cc(-c3cnc(N)c4oc(-c5cccc6cnsc56)cc34)cn2)CC1	≤ 100 nM
CNc1ncc(-c2cnn(C3CCN(C(C)=O)CC3)c2)c2cc(-c3csc4cnccc34)oc12	≤ 100 nM
CC(=O)N1CCC(n2cc(-c3cnc(N)c4oc(-c5csc6cnccc56)cc34)cn2)CC1	100 to 1000 nM
Nc1ncc(-c2cnn([C@H]3CC[C@H](O)CC3)c2)c2cc(-c3cccc4nnsc34)oc12	≤ 100 nM
Nc1ncc(-c2cnn([C@H]3CC[C@H](O)CC3)c2)c2cc(-c3c(F)ccc4cnsc34)oc12	100 to 1000 nM
CC(C)n1cc(-c2cnc(N)c3oc(-c4c[nH]c5cnccc45)cc23)cn1	≤ 100 nM
CC(=O)N1CCC(n2cc(-c3cnc(N)c4oc(-c5ccccc5CC#N)cc34)cn2)CC1	100 to 1000 nM
CC(=O)N1CCC(n2cc(-c3cnc(N)c4oc(-c5csc6cncc(F)c56)cc34)cn2)CC1	100 to 1000 nM
CC(=O)N1CCC(n2cc(-c3cnc(N)c4oc(-c5c[nH]c6cc(C#N)ccc56)cc34)cn2)CC1	100 to 1000 nM
Nc1ncc(-c2cnn(C3CCN(CCO)CC3)c2)c2cc(-c3cccc4cnccc34)oc12	100 to 1000 nM
CC(=O)N1CCC(n2cc(-c3cnc(N)c4oc(-c5cccc6[nH]ccc56)cc34)cn2)CC1	100 to 1000 nM
CC(=O)N1CCC(n2cc(-c3cnc(N)c4oc(-c5csc6ccccc56)cc34)cn2)CC1	100 to 1000 nM
CC(=O)N1CCC(n2cc(-c3cnc(N)c4oc(-c5cccc6ccnn56)cc34)cn2)CC1	100 to 1000 nM
Nc1ncc(-c2cnn(C3CCN(CCF)CC3)c2)c2cc(-c3cccc4cnccc34)oc12	100 to 1000 nM
Nc1ncc(-c2cnn([C@H]3CC[C@H](O)CC3)c2)c2cc(-c3cccc4cnsc34)oc12	100 to 1000 nM
CC(=O)N1CCC(n2cc(-c3cnc(N)c4oc(-c5cncc6cnsc56)cc34)cn2)CC1	100 to 1000 nM
CC(=O)N1CCC(n2cc(-c3cnc(N)c4oc(-c5cn[nH]c5)cc34)cn2)CC1	> 10000 nM
CC(=O)N1CCC(n2cc(-c3cnc(N)c4oc(-c5ccc6ncn(C)c6c5)cc34)cn2)CC1	> 10000 nM
CC(=O)N1CCC(n2cc(-c3cnc(N)c4oc(-c5cccc6c5OC(F)(F)O6)cc34)cn2)CC1	100 to 1000 nM

Structure (SMILES)	IC50
COCC(=O)N1CCC(n2cc(-c3cnc(N)c4oc(-c5cccc6cnccc56)cc34)cn2)CC1	100 to 1000 nM
CC(=O)N1CCC(n2cc(-c3cnc(N)c4oc(-c5c[nH]c6cc(F)ccc56)cc34)cn2)CC1	100 to 1000 nM
CC(=O)N1CCC(n2cc(-c3cnc(N)c4oc(-c5cccc6cnccc56)cc34)cn2)CC1	100 to 1000 nM
CC(=O)N1CCC(n2cc(-c3cnc(N)c4oc(-c5ccc6c(c5)CNC6=O)cc34)cn2)CC1	> 10000 nM
Nc1ncc(-c2cnn([C@@H]3C[C@@H](O)[C@@H](O)C3)c2)c2cc(-c3csc4cnccc34)oc12	100 to 1000 nM
CC(=O)N1CCC(n2cc(-c3cnc(N)c4oc(-c5ccc6[nH]nnc6c5)cc34)cn2)CC1	> 10000 nM
Nc1ncc(-c2cnn(C3CCN(CC(F)(F)F)CC3)c2)c2cc(-c3cccc4cnccc34)oc12	100 to 1000 nM
Nc1ncc(-c2cnn(C3CCNCC3)c2)c2cc(-c3ccc4[nH]ncc4c3)oc12	100 to 1000 nM
CNc1ncc(-c2cnn(C3CCN(C(C)=O)CC3)c2)c2cc(-c3c[nH]c4cnccc34)oc12	100 to 1000 nM
Nc1ncc(-c2cnn([C@H]3CC[C@H](O)CC3)c2)c2cc(-c3csc4cnc(F)cc34)oc12	≤ 100 nM
CN1CCC(n2cc(-c3cnc(N)c4oc(-c5cccc6cnccc56)cc34)cn2)CC1	100 to 1000 nM
CC(=O)N1CCC(n2cc(-c3cnc(N)c4oc(-c5ccc6c(c5)CCO6)cc34)cn2)CC1	≤ 100 nM
Nc1ncc(-c2cnn([C@H]3CC[C@H](O)CC3)c2)c2cc(-c3csc4cnccc34)oc12	≤ 100 nM
CC(C)n1cc(-c2cnc(N)c3oc(-c4cccc5cnccc45)cc23)cn1	100 to 1000 nM
Cn1cc(-c2cnc(N)c3oc(-c4csc5cnccc45)cc23)cn1	100 to 1000 nM
CC(=O)N1CCC(n2cc(-c3cnc(N)c4oc(-c5ccc(O)cc5)cc34)cn2)CC1	100 to 1000 nM
CCSc1ccccc1-c1cc2c(-c3cnn(C4CCN(C(C)=O)CC4)c3)cnc(N)c2o1	100 to 1000 nM
CC(=O)N1CCC(n2cc(-c3cnc(N)c4oc(-c5ccc6scnc6c5)cc34)cn2)CC1	100 to 1000 nM
CC(=O)N1CCC(n2cc(-c3cnc(N)c4oc(-c5cnn(Cc6cccnc6)c5)cc34)cn2)CC1	> 10000 nM
CC(C)N1CCC(n2cc(-c3cnc(N)c4oc(-c5cccc6cnccc56)cc34)cn2)CC1	100 to 1000 nM
CC(=O)N1CCC(n2cc(-c3cnc(N)c4oc(-c5ccc6[nH]ccc6c5)cc34)cn2)CC1	100 to 1000 nM

Structure (SMILES)	IC50
CC(C)C(=O)N1CCC(n2cc(-c3cnc(N)c4oc(-c5cccc6cnccc56)cc34)cn2)CC1	≤ 100 nM
Nc1ncc(-c2cnn(C3CCNCC3)c2)c2cc(-c3csc4cnccc34)oc12	100 to 1000 nM
Nc1ncc(-c2cnn(C3CCN(C(=O)C4CC4)CC3)c2)c2cc(-c3cccc4cnccc34)oc12	100 to 1000 nM
Nc1ncc(-c2cnn(C3CCCCC3)c2)c2cc(-c3c[nH]c4cnccc34)oc12	100 to 1000 nM
COCCN1CCC(n2cc(-c3cnc(N)c4oc(-c5cccc6cnccc56)cc34)cn2)CC1	100 to 1000 nM
Nc1ncc(-c2cnn(C3CCNCC3)c2)c2cc(-c3ccc4[nH][nH]c(=O)c4c3)oc12	> 10000 nM
Nc1ncc(-c2cnn(C3CC4(C3)OCCO4)c2)c2cc(-c3csc4cnccc34)oc12	100 to 1000 nM
CC(=O)N1CCC(n2cc(-c3cnc(N)c4oc(-c5cccc6nnsc56)cc34)cn2)CC1	≤ 100 nM
C[C@]1(O)CC[C@@H](n2cc(-c3cnc(N)c4oc(-c5cccc6cnccc56)cc34)cn2)CC1	100 to 1000 nM
Nc1ncc(-c2cnn([C@H]3CC[C@H](O)CC3)c2)c2cc(-c3ccc(F)c4cnsc34)oc12	100 to 1000 nM
CS(=O)(=O)CCN1CCC(n2cc(-c3cnc(N)c4oc(-c5cccc6cnccc56)cc34)cn2)CC1	100 to 1000 nM
CC(=O)N1CCC(n2cc(-c3cnc(N)c4oc(-c5cccc6[nH]ncc56)cc34)cn2)CC1	100 to 1000 nM
CC(=O)N1CCC(n2cc(-c3cnc(N)c4oc(-c5ccc(S(C)(=O)=O)cc5)cc34)cn2)CC1	> 10000 nM
CSc1ccccc1-c1cc2c(-c3cnn(C4CCN(C(C)=O)CC4)c3)cnc(N)c2o1	100 to 1000 nM
CC(=O)N1CCC(n2cc(-c3cnc(N)c4oc(-c5cccc(C#N)c5)cc34)cn2)CC1	100 to 1000 nM
CC(=O)N1CC(n2cc(-c3cnc(N)c4oc(-c5csc6cnccc56)cc34)cn2)C1	100 to 1000 nM
CC(=O)N1CCC(n2cc(-c3cnc(N)c4oc(-c5ccc6[nH]nc(C#N)c6c5)cc34)cn2)CC1	> 10000 nM
CC(C)(C)OC(=O)N1CCC(n2cc(-c3cnc(N)c4oc(-c5csc6cnccc56)cc34)cn2)CC1	100 to 1000 nM
CC(=O)N1CCC(n2cc(-c3cnc(N)c4oc(-c5cccc([N+](=O)[O-])c5C)cc34)cn2)CC1	100 to 1000 nM
